In US20140187627A1, “USES OF C15-SUBSTITUTED ANDROGRAPHOLIDE DERIVATIVES IN THE PREPARATION OF ANTI-HEPATITIS B VIRUS MEDICAMENT” (ZHENGZHOU UNIVERSITY, priority 2011, published 2014):
“And” between values parts separate entries of the source, which are not always exact repeats. Equal values may be shown once.

Experiments:
[1] = tested on: HBV surface antigen (HBsAg) of HBV-transfected HepG2.2.15 cell line; assay: Inhibition of HBsAg secretion in culture supernatant of HepG2.2.15 cells (ELISA), with MTT cytotoxicity for therapeutic index; assay type: cell-based, Hepatitis B virus
Procedure: HepG2.2.15 cell line, stably transfected with HBV-DNA, was used to evaluate the inhibition of the compounds against the HBV surface antigen (HBsAg) level in the culture supernatant of HepG2.2.15 cell. HepG2.2.15 cells were seeded at a density of 1.25×10^4 cells/well into 48-well plates, 0.5 ml RPMI1640 medium containing 10% fetal bovine serum, 100 unit/ml penicillin, 100 μg/ml streptomycin and 380 μg/ml geneticin (G418) was added to the well. Cells were incubated at 37° C. in a humidified incubator of 5% CO2 for 24 h, and then the culture medium was replaced by fresh medium containing Lamivudine (the positive drug) and compounds of this invention at five concentrations. The culture medium was replaced by a fresh one after 3 days and 6 days incubation, respectively. On d9, the supernatant was collected to determine the HBsAg level and the cells were used to assay the viability by MTT method.
Add 100 μl PBS solution containing 0.5 mg/ml MTT [3-(4,5-dimethylthiazol-2-yl)-2,5diphenyltetrazolium bromide] to the well after removing the supernatant, incubate at 37° C. for 4 h, remove the medium, add […] of DMSO to each well and the plates were shaken for 10 min. The optical density value (A) of each well was read using a PowerWaveX Microplate Scanning Spectrophotometer (Bio-tek Instruments, Inc) at 490 nm. Cells survival rate was calculated. […]

HBV = settings: cited from earlier work

| Compound | Therapeutic index (TI = TC50/IC50) ([1]; HepG2.2.15 cells, treated for 9d, TC50 by MTT) | IC50 ([1]; Hepatitis B virus, HepG2.2.15, 216 h, read-out: IC50 against HBsAg secretion) | Anti-HBV effect in vitro (HBV) |
| --- | --- | --- | --- |
| Nc1ccn([C@@H]2CS[C@H](CO)O2)c(=O)n1 [Lamivudine] | greater than 2 | ~10 µg/mL and ~43.7 µM |  |
| C=C1CCC2C(C)(COC(=O)c3cccnc3)C(OC(=O)c3cccnc3)CCC2(C)C1C=CC1=CC(=Cc2ccc(Cl)cc2)OC1=O (stereo not drawn) [15-p-chlorobenzylidene-14-deoxy-11, 12-didehydro-3, 19-dinicotinate-andrographolide] |  |  | anti-HBV effect in vitro |
